This note sets out measurements from patent US20120321565A1, “PHARMACEUTICAL COMPOSITIONS COMPRISING 17ALPHA-FURANYLESTERS OF 17BETA-CARBOTHIATE ANDROSTANES WITH A MUSCARINIC RECEPTOR ANTAGONIST” (GlaxoSmithKline Intellectual Property Management Limited, priority 2002, published 2012).

One data set has as its system NFκB. As to the kind of experiment: Transrepression (NFκB): firefly luciferase NFκB reporter in TNFα-stimulated A549 cells. In kind it is cell-based. Conditions: Homo sapiens, TNFα 0.5 ng/ml, read-out: Transrepression (NFκB) ED50. An excerpt:
The glucocorticoid receptor (GR) can function in at least two distinct mechanisms, by upregulating gene expression through the direct binding of GR to specific sequences in gene promotors, and by downregulating gene expression that is being driven by other transcription factors (such as NFκB or AP-1) through their direct interaction with GR.
The first cell line contains the firefly luciferase reporter gene under the control of a synthetic promoter that specifically responds to activation of the transcription factor NFκB when stimulated with TNFα. The second cell line contains the renilla luciferase reporter gene under the control of a synthetic promotor that comprises 3 copies of the consensus glucocorticoid response element, and which responds to direct stimulation by glucocorticoids. Simultaneous measurement of transactivation and transrepression was conducted by mixing the two cell lines in a 1:1 ratio in 96 well plate (40,000 cells per well) and growing overnight at 37° C. Test compounds were dissolved in DMSO, and added to the cells at a final DMSO concentration of 0.7%. After incubation for 1 h 0.5 ng/ml TNFα (R&D Systems) was added and after a further 15 hours at 37° C., the levels of firefly and renilla luciferase were measured using the Packard Firelite kit following the manufacturers' directions. Dose response curves were constructed from which EC50 values were determined.

A further data set has as its target T1, glucocorticoid receptor (Homo sapiens, UniProt P04150).
T1 sequence (P04150 1-777): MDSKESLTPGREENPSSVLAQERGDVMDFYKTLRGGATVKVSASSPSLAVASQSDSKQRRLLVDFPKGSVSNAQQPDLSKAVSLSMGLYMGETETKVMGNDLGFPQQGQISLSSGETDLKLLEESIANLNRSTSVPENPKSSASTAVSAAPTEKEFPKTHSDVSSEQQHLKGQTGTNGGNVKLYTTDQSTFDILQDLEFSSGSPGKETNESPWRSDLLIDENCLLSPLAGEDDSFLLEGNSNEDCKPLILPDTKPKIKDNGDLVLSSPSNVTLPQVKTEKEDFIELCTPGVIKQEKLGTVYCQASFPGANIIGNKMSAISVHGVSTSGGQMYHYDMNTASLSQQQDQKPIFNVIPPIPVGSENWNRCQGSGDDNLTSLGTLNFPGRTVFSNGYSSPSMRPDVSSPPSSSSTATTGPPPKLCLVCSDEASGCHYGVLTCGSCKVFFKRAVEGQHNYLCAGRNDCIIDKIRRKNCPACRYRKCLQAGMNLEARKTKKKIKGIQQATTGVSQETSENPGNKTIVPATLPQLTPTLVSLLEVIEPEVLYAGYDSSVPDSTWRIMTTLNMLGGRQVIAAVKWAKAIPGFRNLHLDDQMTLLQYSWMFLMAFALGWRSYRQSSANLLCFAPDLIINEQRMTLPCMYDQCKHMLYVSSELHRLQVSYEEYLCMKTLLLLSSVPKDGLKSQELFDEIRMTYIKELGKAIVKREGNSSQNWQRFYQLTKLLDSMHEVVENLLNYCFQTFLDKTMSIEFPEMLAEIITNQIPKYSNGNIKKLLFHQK
Put plainly: In vitro functional glucocorticoid assays (metabolite vs parent). In kind it is cell-based. From the text:
Compound (I) undergoes highly efficient hepatic metabolism to yield the 17-β carboxylic acid (X) as the sole major metabolite in rat and human in vitro systems.

Data set [1] is described as follows: Pharmacokinetics after intravenous administration in the anaesthetised pig. Conditions: for clearance, compound (I) vs fluticasone propionate (in words): intravenous 0.1 mg/kg; for pharmacokinetic parameters, compound (I) vs fluticasone propionate (in words): intravenous mixture of the two compounds at 0.1 mg/kg. In kind it is in vivo. From the text: The clearance of these two glucocorticoids is similar is this experimental pig model.

As to `C[C@@H]1CC2C3C[C@H](F)C4=CC(=O)C=C[C@]4(C)[C@@]3(F)[C@@H](O)C[C@]2(C)[C@@]1(OC(=O)c1ccco1)C(=O)O` (stereo partly drawn) [Metabolite (X)], the EC50 in the data set on NFκB is over 1 µM. The “fold less active than the parent compound” value at glucocorticoid receptor is over 1000 fold.

For the compound `C[C@@H]1CC2C3C[C@H](F)C4=CC(=O)C=C[C@]4(C)[C@@]3(F)[C@@H](O)C[C@]2(C)[C@@]1(OC(=O)c1ccco1)C(=O)SCF` (stereo partly drawn) [Compound of Formula (I), 6α, 9α-Difluoro-17α-[(2-furanylcarbonyl)oxy]-11β-hydroxy-16α-methyl-3-oxo-androsta-1,4-diene-17β-carbothioic acid S-fluoromethyl ester], in data set [1], the “clearance, compound (I) vs fluticasone propionate (in words)” value is given as “similar” and the “pharmacokinetic parameters, compound (I) vs fluticasone propionate (in words)” value is listed as “the same”.

As for `CCC(=O)O[C@]1(C(=O)SCF)[C@H](C)C[C@H]2[C@@H]3C[C@H](F)C4=CC(=O)C=C[C@]4(C)[C@@]3(F)[C@@H](O)C[C@@]21C` [Fluticasone propionate, 6α, 9α-Difluoro-17α-(1-oxopropoxy)-11β-hydroxy-16α-methyl-3-oxo-androsta-1,4-diene-17β-carbothioic acid S-fluoromethyl ester, reference compound], in data set [1], the “clearance, compound (I) vs fluticasone propionate (in words)” value is reported as “similar” and the “pharmacokinetic parameters, compound (I) vs fluticasone propionate (in words)” value is listed as “the same”.
